# Measured values published in PubChem BioAssay (NCI).
#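 1) Cells in 96-well plates. 2) Compound, 48 h, 5 concentrations. 3) Linear interpolation between surrounding doses. 4) Unreached endpoint = highest concentration. Here, GI50 denotes the concentration required for 50% inhibition of growth. The concentration for full growth arrest is given as TGI.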
# Columns and labels:
# Assay in all cases: inhibition of tumour cell growth, NCI panel, 48 h
# T-47D breast = system: T-47D breast
# SK-MEL-2 melanoma = system: SK-MEL-2 melanoma
# 786-0 renal = system: 786-0 renal
# SR leukemia = system: SR leukemia
# TK-10 renal = system: TK-10 renal
# UACC-62 melanoma = system: UACC-62 melanoma
# U251 CNS = system: U251 CNS
# OVCAR-5 ovarian = system: OVCAR-5 ovarian
# CAKI-1 renal = system: CAKI-1 renal
# IGROV1 ovarian = system: IGROV1 ovarian
# MOLT-4 leukemia = system: MOLT-4 leukemia
# KM12 colon = system: KM12 colon
# EKVX NSCLC = system: EKVX NSCLC
# HS 578T breast = system: HS 578T breast
# HCT-15 colon = system: HCT-15 colon
# MDA-MB-231 breast = system: MDA-MB-231 breast
# SNB-75 CNS = system: SNB-75 CNS
# RPMI-8226 leukemia = system: RPMI-8226 leukemia
# SF-295 CNS = system: SF-295 CNS
# RXF 393 renal = system: RXF 393 renal
# HT29 colon = system: HT29 colon
# ACHN renal = system: ACHN renal
# MCF7 breast = system: MCF7 breast
# NCI-H460 lung = system: NCI-H460 lung
# SK-MEL-28 melanoma = system: SK-MEL-28 melanoma
# A498 renal = system: A498 renal
# MDA-MB-435 = system: MDA-MB-435
# SK-OV-3 ovarian = system: SK-OV-3 ovarian
# HOP-92 NSCLC = system: HOP-92 NSCLC
# NCI-H23 lung = system: NCI-H23 lung
# K-562 leukemia = system: K-562 leukemia
# LOX IMVI melanoma = system: LOX IMVI melanoma
# SK-MEL-5 melanoma = system: SK-MEL-5 melanoma
# UACC-257 melanoma = system: UACC-257 melanoma
# SW-620 colon = system: SW-620 colon
# BT-549 breast = system: BT-549 breast
# SF-539 CNS = system: SF-539 CNS
# MALME-3M melanoma = system: MALME-3M melanoma
# A549 NSCLC = system: A549 NSCLC
# SF-268 CNS = system: SF-268 CNS
# M14 melanoma = system: M14 melanoma
# DU-145 prostate = system: DU-145 prostate
# NCI-H226 lung = system: NCI-H226 lung
# UO-31 renal = system: UO-31 renal
# OVCAR-3 ovarian = system: OVCAR-3 ovarian
# HCC-2998 colon = system: HCC-2998 colon
# SN12C renal = system: SN12C renal
# NCI-H522 lung = system: NCI-H522 lung
# COLO 205 colon = system: COLO 205 colon
# HL-60(TB) leukemia = system: HL-60(TB) leukemia
# OVCAR-4 ovarian = system: OVCAR-4 ovarian
# PC-3 prostate = system: PC-3 prostate
# SNB-19 CNS = system: SNB-19 CNS
# HOP-62 NSCLC = system: HOP-62 NSCLC
# CCRF-CEM leukemia = system: CCRF-CEM leukemia
# OVCAR-8 ovarian = system: OVCAR-8 ovarian
compound,measurement,setting,value
CCN(CC)CCCN1C(=O)c2c(c(C)c3c(oc4ccc(O)cc43)c2C)C1=O,GI50,T-47D breast,2.17 µM
same,TGI,T-47D breast,5.33 µM
same,GI50,SK-MEL-2 melanoma,17 µM
same,TGI,SK-MEL-2 melanoma,35.9 µM
same,GI50,786-0 renal,1.74 µM
same,TGI,786-0 renal,3.32 µM
same,GI50,SR leukemia,0.765 µM
same,TGI,SR leukemia,2.78 µM
same,GI50,TK-10 renal,1.84 µM
same,TGI,TK-10 renal,3.35 µM
same,GI50,UACC-62 melanoma,16.1 µM
same,TGI,UACC-62 melanoma,31.5 µM
same,GI50,U251 CNS,1.58 µM
same,TGI,U251 CNS,2.98 µM
same,GI50,OVCAR-5 ovarian,1.7 µM
same,TGI,OVCAR-5 ovarian,3.13 µM
same,GI50,CAKI-1 renal,2.33 µM
same,TGI,CAKI-1 renal,6.52 µM
same,GI50,IGROV1 ovarian,1.74 µM
same,TGI,IGROV1 ovarian,3.31 µM
same,GI50,MOLT-4 leukemia,1.8 µM
same,TGI,MOLT-4 leukemia,4.26 µM
same,GI50,KM12 colon,1.83 µM
same,TGI,KM12 colon,3.55 µM
same,GI50,EKVX NSCLC,1.69 µM
same,TGI,EKVX NSCLC,3.27 µM
same,GI50,HS 578T breast,2.15 µM
same,TGI,HS 578T breast,5.31 µM
same,GI50,HCT-15 colon,1.68 µM
same,TGI,HCT-15 colon,3.22 µM
same,GI50,MDA-MB-231 breast,1.91 µM
same,TGI,MDA-MB-231 breast,3.58 µM
same,GI50,SNB-75 CNS,1.59 µM
same,TGI,SNB-75 CNS,2.98 µM
same,GI50,RPMI-8226 leukemia,1.85 µM
same,TGI,RPMI-8226 leukemia,4.28 µM
same,GI50,SF-295 CNS,1.82 µM
same,TGI,SF-295 CNS,3.26 µM
same,GI50,RXF 393 renal,1.49 µM
same,TGI,RXF 393 renal,2.97 µM
same,GI50,HT29 colon,1.55 µM
same,TGI,HT29 colon,3.02 µM
same,GI50,ACHN renal,1.62 µM
same,TGI,ACHN renal,2.98 µM
same,GI50,MCF7 breast,1.81 µM
same,TGI,MCF7 breast,3.71 µM
same,GI50,NCI-H460 lung,1.83 µM
same,TGI,NCI-H460 lung,3.47 µM
same,GI50,SK-MEL-28 melanoma,1.82 µM
same,TGI,SK-MEL-28 melanoma,3.38 µM
same,GI50,A498 renal,12.6 µM
same,TGI,A498 renal,27.2 µM
same,GI50,MDA-MB-435,1.84 µM
same,TGI,MDA-MB-435,3.53 µM
same,GI50,SK-OV-3 ovarian,1.7 µM
same,TGI,SK-OV-3 ovarian,3.1 µM
same,GI50,HOP-92 NSCLC,1.33 µM
same,TGI,HOP-92 NSCLC,2.81 µM
same,GI50,NCI-H23 lung,1.99 µM
same,TGI,NCI-H23 lung,3.8 µM
same,GI50,K-562 leukemia,1.71 µM
same,TGI,K-562 leukemia,3.77 µM
same,GI50,LOX IMVI melanoma,1.79 µM
same,TGI,LOX IMVI melanoma,3.32 µM
same,GI50,SK-MEL-5 melanoma,1.71 µM
same,TGI,SK-MEL-5 melanoma,3.12 µM
same,GI50,UACC-257 melanoma,1.88 µM
same,TGI,UACC-257 melanoma,3.92 µM
same,GI50,SW-620 colon,1.7 µM
same,TGI,SW-620 colon,3.52 µM
same,GI50,BT-549 breast,1.75 µM
same,TGI,BT-549 breast,3.26 µM
same,GI50,SF-539 CNS,1.72 µM
same,TGI,SF-539 CNS,3.11 µM
same,GI50,MALME-3M melanoma,1.73 µM
same,TGI,MALME-3M melanoma,3.25 µM
same,GI50,A549 NSCLC,1.65 µM
same,TGI,A549 NSCLC,3.23 µM
same,GI50,SF-268 CNS,1.69 µM
same,TGI,SF-268 CNS,3.43 µM
same,GI50,M14 melanoma,1.76 µM
same,TGI,M14 melanoma,3.2 µM
same,GI50,DU-145 prostate,1.84 µM
same,TGI,DU-145 prostate,3.29 µM
same,GI50,NCI-H226 lung,1.93 µM
same,TGI,NCI-H226 lung,4.27 µM
same,GI50,UO-31 renal,1.58 µM
same,TGI,UO-31 renal,3.01 µM
same,GI50,OVCAR-3 ovarian,1.85 µM
same,TGI,OVCAR-3 ovarian,3.42 µM
same,GI50,HCC-2998 colon,2.67 µM
same,TGI,HCC-2998 colon,7.39 µM
same,GI50,SN12C renal,1.78 µM
same,TGI,SN12C renal,3.36 µM
same,GI50,NCI-H522 lung,1.84 µM
same,TGI,NCI-H522 lung,3.75 µM
same,GI50,COLO 205 colon,2.64 µM
same,TGI,COLO 205 colon,10.8 µM
same,GI50,HL-60(TB) leukemia,1.57 µM
same,TGI,HL-60(TB) leukemia,3.43 µM
same,GI50,OVCAR-4 ovarian,1.93 µM
same,TGI,OVCAR-4 ovarian,3.68 µM
CSc1nn2c(-c3ccc4ccccc4c3)ccnc2c1C#N,GI50,T-47D breast,4.05 µM
same,TGI,T-47D breast,> 100 µM
same,GI50,SK-MEL-2 melanoma,0.874 µM
same,TGI,SK-MEL-2 melanoma,> 100 µM
same,GI50,786-0 renal,2.11 µM
same,TGI,786-0 renal,> 100 µM
same,GI50,SR leukemia,0.343 µM
same,TGI,SR leukemia,> 100 µM
same,GI50,TK-10 renal,5.09 µM
same,TGI,TK-10 renal,> 100 µM
same,GI50,PC-3 prostate,2.98 µM
same,TGI,PC-3 prostate,> 100 µM
same,GI50,UACC-62 melanoma,0.439 µM
same,TGI,UACC-62 melanoma,6.51 µM
same,GI50,U251 CNS,0.989 µM
same,TGI,U251 CNS,> 100 µM
same,GI50,OVCAR-5 ovarian,5.14 µM
same,TGI,OVCAR-5 ovarian,> 100 µM
same,GI50,SNB-19 CNS,1.22 µM
same,TGI,SNB-19 CNS,> 100 µM
same,GI50,HOP-62 NSCLC,1.09 µM
same,TGI,HOP-62 NSCLC,> 100 µM
same,GI50,CAKI-1 renal,0.55 µM
same,TGI,CAKI-1 renal,> 100 µM
same,GI50,IGROV1 ovarian,0.763 µM
same,TGI,IGROV1 ovarian,> 100 µM
same,GI50,MOLT-4 leukemia,0.668 µM
same,TGI,MOLT-4 leukemia,> 100 µM
same,GI50,KM12 colon,0.49 µM
same,TGI,KM12 colon,> 100 µM
same,GI50,EKVX NSCLC,3.04 µM
same,TGI,EKVX NSCLC,> 100 µM
same,GI50,HS 578T breast,1.05 µM
same,TGI,HS 578T breast,> 100 µM
same,GI50,CCRF-CEM leukemia,7.51 µM
same,TGI,CCRF-CEM leukemia,> 100 µM
same,GI50,HCT-15 colon,0.39 µM
same,TGI,HCT-15 colon,> 100 µM
same,GI50,MDA-MB-231 breast,1.11 µM
same,TGI,MDA-MB-231 breast,5.88 µM
same,GI50,SNB-75 CNS,0.197 µM
same,TGI,SNB-75 CNS,1.51 µM
same,GI50,RPMI-8226 leukemia,0.599 µM
same,TGI,RPMI-8226 leukemia,> 100 µM
same,GI50,SF-295 CNS,1.78 µM
same,TGI,SF-295 CNS,> 100 µM
same,GI50,HT29 colon,0.454 µM
same,TGI,HT29 colon,> 100 µM
same,GI50,ACHN renal,1.14 µM
same,TGI,ACHN renal,> 100 µM
same,GI50,MCF7 breast,1.3 µM
same,TGI,MCF7 breast,> 100 µM
same,GI50,SK-MEL-28 melanoma,1.16 µM
same,TGI,SK-MEL-28 melanoma,> 100 µM
same,GI50,A498 renal,0.176 µM
same,TGI,A498 renal,0.897 µM
same,GI50,MDA-MB-435,0.229 µM
same,TGI,MDA-MB-435,0.641 µM
same,GI50,OVCAR-8 ovarian,0.944 µM
same,TGI,OVCAR-8 ovarian,> 100 µM
same,GI50,SK-OV-3 ovarian,2.2 µM
same,TGI,SK-OV-3 ovarian,> 100 µM
same,GI50,HOP-92 NSCLC,1.71 µM
same,TGI,HOP-92 NSCLC,6.55 µM
same,GI50,NCI-H23 lung,2.04 µM
same,TGI,NCI-H23 lung,> 100 µM
same,GI50,K-562 leukemia,0.306 µM
same,TGI,K-562 leukemia,> 100 µM
same,GI50,LOX IMVI melanoma,0.754 µM
same,TGI,LOX IMVI melanoma,> 100 µM
same,GI50,SK-MEL-5 melanoma,0.693 µM
same,TGI,SK-MEL-5 melanoma,> 100 µM
same,GI50,UACC-257 melanoma,6.93 µM
same,TGI,UACC-257 melanoma,> 100 µM
same,GI50,SW-620 colon,0.428 µM
same,TGI,SW-620 colon,> 100 µM
same,GI50,BT-549 breast,2.29 µM
same,TGI,BT-549 breast,> 100 µM
same,GI50,SF-539 CNS,1.3 µM
same,TGI,SF-539 CNS,64.8 µM
same,GI50,MALME-3M melanoma,0.663 µM
same,TGI,MALME-3M melanoma,44.5 µM
same,GI50,A549 NSCLC,0.828 µM
same,TGI,A549 NSCLC,> 100 µM
same,GI50,SF-268 CNS,1.29 µM
same,TGI,SF-268 CNS,> 100 µM
same,GI50,M14 melanoma,0.39 µM
same,TGI,M14 melanoma,27.4 µM
same,GI50,DU-145 prostate,6.99 µM
same,TGI,DU-145 prostate,> 100 µM
same,GI50,NCI-H226 lung,2.81 µM
same,TGI,NCI-H226 lung,> 100 µM
same,GI50,HCC-2998 colon,6.02 µM
same,TGI,HCC-2998 colon,> 100 µM
same,GI50,SN12C renal,0.857 µM
same,TGI,SN12C renal,> 100 µM
same,GI50,NCI-H522 lung,0.442 µM
same,TGI,NCI-H522 lung,> 100 µM
same,GI50,COLO 205 colon,0.727 µM
same,TGI,COLO 205 colon,> 100 µM
same,GI50,HL-60(TB) leukemia,0.668 µM
same,TGI,HL-60(TB) leukemia,> 100 µM
